{"source": "patent US11793197B2", "about": "“Use of an amphidinol for its fungicidal and/or bactericidal activity on fungi, oomycetes and/or pathogenic bacteria of plants and crop seeds” (Immunrise […], priority 2017, dated 2023)", "system": "F. graminearum spores", "type": "cell-based, Fusarium graminearum", "data": [{"smiles": "C=C/C=C/CC/C=C/C=C/C=C/CC/C=C/[C@H](O)[C@H](O)[C@@H]1O[C@@H]([C@H](O)[C@H](O)C(=C)CC[C@@H](O)[C@H]2C[C@@H](O)[C@@H](O)[C@H]([C@@H](O)[C@H](O)/C=C(\\C)CCC(O)CC(O)C(O)C(C)CC(O)C(O)CC(C)CCC(O)CC(=O)CC(O)CCCC(O)CCCCC(O)CO)O2)C[C@@H](O)[C@H]1O", "note": "(stereo partly shown) [amphidinol 18]", "values": [{"measurement": "antifungal activity against F. graminearum", "result": "has antifungal activity"}]}]}
